We go through 2 molecules from US6958323B2 (priority 1997, dated 2005).

Like-named read-outs stand apart in the source and are kept apart here.

Assay [1] relates to rat striatal synaptosomes. It counts as cell-based.
Assay [2] relates to rat hippocampal synaptosomes. The note with it: read-out: EC50 for release of hippocampal norepinephrine; cited from earlier work.
Assay [3] concerns rat striatal synaptosomes. The note with it: cited from earlier work.

As to `CNC1(C)C2CCC(C2)C1(C)C` (stereo not shown) [mecamylamine], the “Block of nicotine-stimulated [3H]-dopamine release” value in assay [1] is listed as “fully blocked”.
`CN1CCCC1c1cccnc1` (stereo not shown) [nicotine]: the results for the concentration giving a half-maximal response (EC50) in assay [2], in assay [3] (read-out: EC50 for increase of [3H]-dopamine release) and in assay [3] (read-out: EC50 for release of striatal dopamine) were 6500 nM, 160 nM and 160 nM, respectively.
